The text below walks through data of patent US20100144733A1, “Compounds, compositions and methods comprising heteroaromatic derivatives” (Institute for OneWorld Health, priority 2008, published 2010).

As usually defined, the IC50 is the point on the concentration scale where inhibition reaches its midpoint.

T1 sequence (P13569 whole entry): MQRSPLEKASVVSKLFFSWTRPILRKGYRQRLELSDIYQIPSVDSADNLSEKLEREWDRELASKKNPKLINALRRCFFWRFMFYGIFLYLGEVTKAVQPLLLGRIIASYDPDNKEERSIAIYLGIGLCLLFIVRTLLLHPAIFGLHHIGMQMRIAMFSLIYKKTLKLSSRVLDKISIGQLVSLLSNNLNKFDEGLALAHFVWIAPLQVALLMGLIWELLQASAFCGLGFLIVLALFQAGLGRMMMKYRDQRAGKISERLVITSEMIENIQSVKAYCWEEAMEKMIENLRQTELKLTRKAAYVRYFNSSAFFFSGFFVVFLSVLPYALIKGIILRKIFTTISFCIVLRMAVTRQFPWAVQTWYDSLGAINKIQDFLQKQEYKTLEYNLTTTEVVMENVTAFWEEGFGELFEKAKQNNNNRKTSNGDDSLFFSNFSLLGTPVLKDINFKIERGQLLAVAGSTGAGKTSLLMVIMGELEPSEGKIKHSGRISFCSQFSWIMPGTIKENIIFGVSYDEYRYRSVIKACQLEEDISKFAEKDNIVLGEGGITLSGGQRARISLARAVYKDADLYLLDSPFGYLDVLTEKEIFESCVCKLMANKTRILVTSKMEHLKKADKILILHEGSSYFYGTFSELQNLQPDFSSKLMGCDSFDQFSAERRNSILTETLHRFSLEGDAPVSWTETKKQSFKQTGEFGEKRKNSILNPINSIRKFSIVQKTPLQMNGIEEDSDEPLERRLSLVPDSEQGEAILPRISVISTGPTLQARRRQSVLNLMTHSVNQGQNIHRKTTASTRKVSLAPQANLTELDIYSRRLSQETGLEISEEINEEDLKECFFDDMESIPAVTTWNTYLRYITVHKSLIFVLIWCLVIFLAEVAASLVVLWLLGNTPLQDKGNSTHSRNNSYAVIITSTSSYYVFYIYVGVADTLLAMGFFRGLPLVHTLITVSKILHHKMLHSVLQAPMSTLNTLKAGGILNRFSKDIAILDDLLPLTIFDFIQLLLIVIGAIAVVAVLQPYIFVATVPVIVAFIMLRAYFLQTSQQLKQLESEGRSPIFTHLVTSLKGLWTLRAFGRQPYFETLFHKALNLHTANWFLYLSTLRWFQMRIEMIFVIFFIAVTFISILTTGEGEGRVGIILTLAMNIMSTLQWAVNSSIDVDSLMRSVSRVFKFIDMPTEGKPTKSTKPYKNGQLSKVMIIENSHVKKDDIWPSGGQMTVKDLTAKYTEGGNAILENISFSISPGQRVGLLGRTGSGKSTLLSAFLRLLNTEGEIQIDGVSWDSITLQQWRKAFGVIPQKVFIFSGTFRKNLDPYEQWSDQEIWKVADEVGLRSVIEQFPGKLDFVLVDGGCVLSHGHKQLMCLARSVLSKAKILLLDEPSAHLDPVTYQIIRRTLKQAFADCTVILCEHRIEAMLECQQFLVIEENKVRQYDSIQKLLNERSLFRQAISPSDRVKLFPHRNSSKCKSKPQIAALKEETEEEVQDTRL

One assay concerns the target T1, CFTR (Homo sapiens, UniProt P13569).
T1 construct: endogenous in cells; host or cells: T84 human colonic cells (ECACC)
Kind of assay: T84 assay (FLIPR membrane potential dye, forskolin/IBMX-stimulated CFTR channel activity). The class given is cell-based. To be noted: imidazole and triazole-containing compounds (Tables 13, 14, 14′), read-out: IC50 (μM) (T84 assay). The essentials:
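Fluorescence from a membrane potential dye in T84 monolayers (HBSS with 10 mM Hepes) is followed each second for 150 s. Cells are exposed to test compound during the 45 min dye loading, then challenged with forskolin (10 μM) and IBMX (100 μM) to open CFTR. Inhibitors suppress the depolarization-driven fluorescence increase.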
For `COCCOCCOCCN(Cc1cccc(OC(F)(F)F)c1)C(=O)c1ncn(-c2cc(Cl)c(O)c(Cl)c2)n1` [113i, 1-(3,5-dichloro-4-hydroxyphenyl)-N-(2-(2-(2-methoxyethoxy)ethoxy)ethyl)-N-(3-(trifluoromethoxy)benzyl)-1H-1,2,4-triazole-3-carboxamide], the IC50 was found to be 23.5 µM.

Regarding `O=C(NCc1cccc(Cl)c1)c1ncn(-c2cc(Cl)c(O)c(Cl)c2)n1` [47i, N-(3-chlorobenzyl)-1-(3,5-dichloro-4-hydroxyphenyl)-1H-1,2,4-triazole-3-carboxamide], the IC50 was 12.6 µM.

Regarding `O=C(NCc1cccc(-c2ccccc2)c1)c1ncn(-c2cc(Cl)c(O)c(Cl)c2)n1` [25i, N-(biphenyl-3-ylmethyl)-1-(3,5-dichloro-4-hydroxyphenyl)-1H-1,2,4-triazole-3-carboxamide], the IC50 is 3.7 µM.

As for `COCCOCCOCCOCCOCCN(Cc1ccc(C(C)(C)C)cc1)C(=O)c1ncn(-c2cc(Cl)c(O)c(Cl)c2)n1` [118i, N-(4-tert-butylbenzyl)-1-(3,5-dichloro-4-hydroxyphenyl)-N-(2,5,8,11,14-pentaoxahexadecan-16-yl)-1H-1,2,4-triazole-3-carboxamide], the IC50 was 17.3 µM.

The same assay, now with this note: isoxazole-containing compounds (Table 10, 10′, 11, 11′), read-out: IC50.
On to `CN(Cc1ccccc1)C(=O)c1cc(-c2cc(Br)c(O)c(Br)c2)on1` [1g, N-Benzyl-5-(3,5-dibromo-4-hydroxyphenyl)-N-methylisoxazole-3-carboxamide], for which the IC50 is 7.65 µM.

Take `CN(Cc1ccc2c(c1)OCO2)C(=O)c1cc(-c2cc(Br)c(O)c(Br)c2)on1` [4g, N-(benzo[d][1,3]dioxol-5-ylmethyl)-5-(3,5-dibromo-4-hydroxyphenyl)-N-methylisoxazole-3-carboxamide]: the IC50 was 19 µM.

Consider `O=C(c1cc(-c2cc(Br)c(O)c(Br)c2)on1)N1CCC(Cc2ccccc2)CC1` [9g, (4-Benzylpiperidin-1-yl)(5-(3,5-dibromo-4-hydroxyphenyl)isoxazol-3-yl)methanone], for which the IC50 came out at 8.96 µM.

The same assay, now with this note: oxadiazole-containing compounds (a series), average of at least 2 runs unless annotated n = 1, read-out: IC50.
As to `O=C(c1nc(-c2cc(Cl)c(O)c(Cl)c2)no1)N(Cc1cccnc1)Cc1cccc(C(F)(F)F)c1` [89a, 3-(3,5-dichloro-4-hydroxyphenyl)-N-(pyridin-3-ylmethyl)-N-(3-(trifluoromethyl)benzyl)-1,2,4-oxadiazole-5-carboxamide], the IC50 was 2.52 µM.

Take `CC(C)(C)C(=O)CN(Cc1ccc(F)c(F)c1)C(=O)c1nc(-c2cc(Cl)c(O)c(Cl)c2)no1` [152a, 3-(3,5-dichloro-4-hydroxyphenyl)-N-(3,4-difluorobenzyl)-N-(3,3-dimethyl-2-oxobutyl)-1,2,4-oxadiazole-5-carboxamide]: the IC50 turned out to be 8.88 µM.

`O=C(NCc1cc(F)ccc1F)c1noc(-c2cc(Cl)c(O)c(Cl)c2)n1` [113a, 5-(3,5-dichloro-4-hydroxyphenyl)-N-(2,5-difluorobenzyl)-1,2,4-oxadiazole-3-carboxamide]: the IC50 amounted to 15.7 µM.

Turning to `O=C(NCc1cccc(F)c1F)c1noc(-c2cc(Cl)c(O)c(Cl)c2)n1` [102a, 5-(3,5-dichloro-4-hydroxyphenyl)-N-(2,3-difluorobenzyl)-1,2,4-oxadiazole-3-carboxamide], the IC50 came out at 10.1 µM.

Take `O=C(NCc1ccccc1C(F)(F)F)c1nc(-c2cc(Br)c(O)c(Br)c2)no1` [36a, 3-(3,5-dibromo-4-hydroxyphenyl)-N-(2-(trifluoromethyl)benzyl)-1,2,4-oxadiazole-5-carboxamide]: the IC50 was found to be 21.4 µM.

Regarding `CC#CCN(Cc1cccc(C(F)(F)F)c1)C(=O)c1nc(-c2cc(Cl)c(O)c(Cl)c2)no1` [98a, N-(but-2-ynyl)-3-(3,5-dichloro-4-hydroxyphenyl)-N-(3-(trifluoromethyl)benzyl)-1,2,4-oxadiazole-5-carboxamide], the IC50 was 2.86 µM.

For the compound `O=C(NCc1ccc(C(F)(F)F)cc1F)c1nc(-c2cc(Cl)c(O)c(Cl)c2)no1` [124a, 3-(3,5-dichloro-4-hydroxyphenyl)-N-(2-fluoro-4-(trifluoromethyl)benzyl)-1,2,4-oxadiazole-5-carboxamide], the IC50 was 14.6 µM.

In the case of `O=C(NCc1cccc(-c2ccccc2)c1)c1nc(-c2cc(Cl)c(O)c(Cl)c2)no1` [125a, N-(biphenyl-3-ylmethyl)-3-(3,5-dichloro-4-hydroxyphenyl)-1,2,4-oxadiazole-5-carboxamide], the IC50 came out at 6.76 µM.

Turning to `O=C(O)COc1c(Cl)cc(-c2nc(C(=O)NCc3ccc(Oc4ccccc4)cc3)no2)cc1Cl` [107a, 2-(2,6-dichloro-4-(3-(4-phenoxybenzylcarbamoyl)-1,2,4-oxadiazol-5-yl)phenoxy)acetic acid], the IC50 came to 19.2 µM.

For `CN(C)c1cccc(CNC(=O)c2noc(-c3cc(Cl)c(O)c(Cl)c3)n2)c1` [160a, 5-(3,5-dichloro-4-hydroxyphenyl)-N-(3-(dimethylamino)benzyl)-1,2,4-oxadiazole-3-carboxamide], the IC50 came to 7.26 µM.

In the case of `CN(Cc1cccc(Oc2ccccn2)c1)C(=O)c1nc(-c2cc(Cl)c(O)c(Cl)c2)no1` [178a, 3-(3,5-dichloro-4-hydroxyphenyl)-N-methyl-N-(3-(pyridin-2-yloxy)benzyl)-1,2,4-oxadiazole-5-carboxamide], the IC50 came out at 7.94 µM.

With `CC(C)Oc1ccc(Oc2ccc(CNC(=O)c3nc(-c4cc(Cl)c(O)c(Cl)c4)no3)cc2)cc1Cl` [180a, N-(4-(3-chloro-4-isopropoxyphenoxy)benzyl)-3-(3,5-dichloro-4-hydroxyphenyl)-1,2,4-oxadiazole-5-carboxamide], the IC50 was 10.3 µM.

Turning to `COc1ccc(Oc2ccc(CNC(=O)c3nc(-c4cc(Cl)c(O)c(Cl)c4)no3)cc2)cc1F` [183a, 3-(3,5-dichloro-4-hydroxyphenyl)-N-(4-(3-fluoro-4-methoxyphenoxy)benzyl)-1,2,4-oxadiazole-5-carboxamide], the IC50 amounted to 11.7 µM.

As for `CN(Cc1cccc(C(F)(F)F)c1)C(=O)c1nc(-c2cc(Cl)c(O)c(Cl)c2)no1` [139a, 3-(3,5-dichloro-4-hydroxyphenyl)-N-methyl-N-(3-(trifluoromethyl)benzyl)-1,2,4-oxadiazole-5-carboxamide], the IC50 was 5.1 µM.

Consider `O=C(NCc1cc(C(F)(F)F)ccc1F)c1noc(-c2cc(Cl)c(O)c(Cl)c2)n1` [155a, 5-(3,5-dichloro-4-hydroxyphenyl)-N-(2-fluoro-5-(trifluoromethyl)benzyl)-1,2,4-oxadiazole-3-carboxamide], for which the IC50 was found to be 2.22 µM.

For `CN(Cc1ccc(F)c(F)c1)C(=O)c1noc(-c2cc(Cl)c(O)c(Cl)c2)n1` [117a, 5-(3,5-dichloro-4-hydroxyphenyl)-N-(3,4-difluorobenzyl)-N-methyl-1,2,4-oxadiazole-3-carboxamide], the IC50 came out at 19.9 µM.

As to `O=C(NCc1ccccc1F)c1nc(-c2cc(Br)c(O)c(Br)c2)no1` [35a, 3-(3,5-dibromo-4-hydroxyphenyl)-N-(2-fluorobenzyl)-1,2,4-oxadiazole-5-carboxamide], the IC50 was determined as 19.2 µM.

On to `O=C(NCc1ccccc1)c1nc(-c2cc(Br)c(O)c(Br)c2)no1` [33a, N-benzyl-3-(3,5-dibromo-4-hydroxyphenyl)-1,2,4-oxadiazole-5-carboxamide], for which the IC50 was determined as 17.8 µM.

`O=C(NCc1cccc(F)c1)c1noc(-c2cc(Cl)c(O)c(Cl)c2)n1` [116a, 5-(3,5-dichloro-4-hydroxyphenyl)-N-(3-fluorobenzyl)-1,2,4-oxadiazole-3-carboxamide]: the IC50 came out at 18 µM.

As for `O=C(NCc1ccc(F)cc1)c1noc(-c2cc(Cl)c(O)c(Cl)c2)n1` [115a, 5-(3,5-dichloro-4-hydroxyphenyl)-N-(4-fluorobenzyl)-1,2,4-oxadiazole-3-carboxamide], the IC50 stood at 11.8 µM.

For the compound `CN(Cc1ccc(C(F)(F)F)cc1)C(=O)c1nc(-c2cc(Cl)c(O)c(Cl)c2)no1` [138a, 3-(3,5-dichloro-4-hydroxyphenyl)-N-methyl-N-(4-(trifluoromethyl)benzyl)-1,2,4-oxadiazole-5-carboxamide], the IC50 is 3.84 µM.

As for `O=C(NCc1ccc(F)c(Cl)c1)c1nc(-c2cc(Cl)c(O)c(Cl)c2)no1` [130a, N-(3-chloro-4-fluorobenzyl)-3-(3,5-dichloro-4-hydroxyphenyl)-1,2,4-oxadiazole-5-carboxamide], the IC50 worked out at 9.44 µM.

`COc1ccccc1N1CCN(C(=O)c2nc(-c3cc(Br)c(O)c(Br)c3)no2)CC1` [26a, (3-(3,5-dibromo-4-hydroxyphenyl)-1,2,4-oxadiazol-5-yl)(4-(2-methoxyphenyl)piperazin-1-yl)methanone]: the IC50 turned out to be 14.5 µM.

On to `O=C(NCc1ccc(-c2ccccc2)cc1)c1nc(-c2cc(Cl)c(O)c(Cl)c2)no1` [131a, N-(biphenyl-4-ylmethyl)-3-(3,5-dichloro-4-hydroxyphenyl)-1,2,4-oxadiazole-5-carboxamide], for which the IC50 turned out to be 6.83 µM.

For the compound `O=C(NCc1ccc(Oc2ccc(C(F)(F)F)cc2)cc1)c1nc(-c2cc(Cl)c(O)c(Cl)c2)no1` [198a, 3-(3,5-dichloro-4-hydroxyphenyl)-N-(4-(4-(trifluoromethyl)phenoxy)benzyl)-1,2,4-oxadiazole-5-carboxamide], the IC50 turned out to be 19.6 µM.

As for `O=C(NCc1ccc(Oc2cc(Cl)cc(Cl)c2)cc1)c1nc(-c2cc(Cl)c(O)c(Cl)c2)no1` [196a, 3-(3,5-dichloro-4-hydroxyphenyl)-N-(4-(3,5-dichlorophenoxy)benzyl)-1,2,4-oxadiazole-5-carboxamide], the IC50 was 16.2 µM.

Still in this assay, the particulars now being: thiadiazole-containing compounds (Table 12), read-out: IC50.
Turning to `Cc1cc(Cl)ccc1OCc1nnc(-c2cc(Cl)c(O)c(Cl)c2)s1` [4h, 2,6-dichloro-4(5-((4-chloro-2-methylphenoxy)methyl)-1,3,4-thiadiazol-2-yl)phenol], the IC50 worked out at 12.7 µM.

On to `Oc1c(Cl)cc(-c2nnc(Cc3ccsc3)s2)cc1Cl` [6h, 2,6-dichloro-4-(5-(thiophen-3-ylmethyl)-1,3,4-thiadiazol-2-yl)phenol], for which the IC50 is 17.6 µM.
